# Assay results reported in patent US20260207640A1, “Polyphenolic Boronates and Use Thereof” (The Medical College of Wisconsin, Inc., priority 2022, published 2026).
# “Also recorded” adds a separate entry of the source.
# Legend:
# [1] = tested on: arginase-1 and NOS-2 (or iNOS); conditions: cited from earlier work
# [2] = tested on: glioblastoma (U87MG) cells; experiment: IncuCyte cell proliferation, glioblastoma cells; type: cell-based, human; conditions: for antiproliferative effect, boronate versus non-boronated analog: comparison within pair (HNK/HNK-B, Mito-HNK/Mito-HNK-B, MGN/MGN-B, Mito-MGN/Mito-MGN-B)
# Experimental: (§1) FIGS. 2A-2C show effects of HNK and HNK-B on the proliferation of glioblastoma (U87MG), pancreatic cancer (MiaPaCa-2) cells, and lung cancer (A549) cells. The effects of HNK and HNK-B on the proliferation of U87MG (FIG. 2A), MiaPaCa-2 (FIG. 2B), or A549 (FIG. 2C) cells were monitored in the IncuCyte Live-Cell Analysis system. The IncuCyte analyzer provides real-time updates on cell confluence based on segmentation of high definition-phase contrast images. Representative cell images are shown as segmentation masks, illustrated when control cells reached 90% confluence (vertical solid line). The half maximal inhibitory concentration (IC50) values for U87MG (FIG. 2A), MiaPaCa-2 (FIG. 2B), or A549 (FIG. 2C) cells were determined at the point at which control cells reached ~90% confluence (vertical solid line). Relative cell confluence (control is taken as 100%) is plotted against concentration. Dashed lines represent the fitting curves used to determine the IC50 values as indicated. Data shown are the mean±standard deviation (SD).
# (§2) The effects of Mito-HNK and Mito-HNK-B on the proliferation of U87MG (FIG. 3A), MiaPaCa-2 (FIG. 3B), or A549 (FIG. 3C) cells were monitored in the IncuCyte Live-Cell Analysis system. The IncuCyte analyzer provides real-time updates on cell confluence based on segmentation of high definition-phase contrast images. Representative cell images are shown as segmentation masks, illustrated when control cells reached 90% confluence (vertical solid line). The IC50 values for U87MG (FIG. 3A), MiaPaCa-2 (FIG. 3B), or A549 (FIG. 3C) cells were determined at the point at which control cells reached ~90% confluence (vertical solid line). Relative cell confluence (control is taken as 100%) is plotted against concentration. Dashed lines represent the fitting curves used to determine the IC50 values as indicated. Data shown are the mean±SD.
# FIGS. 4A-4B show effects of Mito-MGN, Mito-MGN-B, MGN, and MGN-B on the proliferation of glioblastoma cancer (U87MG) cells. The effects of Mito-MGN, Mito-MGN-B, MGN, and MGN-B on the proliferation of U87MG cells were monitored in the IncuCyte Live-Cell Analysis system. The IncuCyte analyzer provides real-time updates on cell confluence based on segmentation of high definition-phase contrast images. Representative cell images are shown as segmentation masks, illustrated in black when control cells reached 90% confluence. Full growth curves of Mito-MGN and Mito-MGN-B are shown in panel (FIG. 4A). The IC50 values were determined at the point at which control cells reached ~90% confluence. Relative cell confluence (control is taken as 100%) is plotted against concentration. Dashed lines in FIG. 4B represent the fitting curves used to determine the IC50 values as indicated for Mito-MGN and Mito-MGN-B (left panel) and for MGN and MGN-B (right panel). Data shown are the mean±SD.
# (§3) The U87MG (ATCC Cat #HTB-14, human glioblastoma cancer cells), A549 (ATCC Cat #CCL-185, human lung cancer cells), and MiaPaCa-2 (ATCC Cat #CRL-1420, human pancreatic cancer cells) cell lines were purchased from the American Tissue Culture Collection (Manassas, VA, USA). The UACC-62 melanoma cell line was purchased from AddexBio (San Diego, CA; Cat #C0020003). All cell lines were regularly authenticated. All cell lines were grown at 37° C. in 5% carbon dioxide. The U87MG, A549, and UACC-62 cells were maintained in Roswell Park Memorial Institute Medium 1640 medium (Thermo Fisher Scientific, Waltham, MA, USA; Cat #11875) supplemented with 10% fetal bovine serum. MiaPaCa-2 cells were maintained in Dulbecco's Modified Eagle Medium (Thermo Fisher Scientific, Waltham, MA, USA; Cat #11965) and supplemented with 10% fetal bovine serum. All cells were stored in liquid nitrogen and used within 20 passages after thawing.
# The IncuCyte Live-Cell Analysis System was used to continuously monitor cell proliferation, as described in earlier publications.
# [3] = tested on: pancreatic cancer (MiaPaCa-2) cells; experiment: IncuCyte cell proliferation, pancreatic cancer cells; type: cell-based, human; conditions: comparison within pair
# Experimental: as §1
# as §2, with “mean±SD. […]” for “mean±SD.”
# [4] = tested on: lung cancer (A549) cells; experiment: IncuCyte cell proliferation, lung cancer cells; type: cell-based, human; conditions: comparison within pair
# Experimental: as §1
# as §2, with “mean±SD. […]” for “mean±SD.”
# [5] = tested on: melanoma (UACC-62) cells; experiment: IncuCyte cell proliferation, melanoma cells; type: cell-based; conditions: dose-dependent
# Experimental: FIGS. 5A-5B show effects of MGN and MGN-B on the proliferation of melanoma cancer (UACC-62) cells. The effects of MGN and MGN-B on the proliferation of UACC-62 cells were monitored in the IncuCyte Live-Cell Analysis system. The IncuCyte analyzer provides real-time updates on cell confluence based on segmentation of high definition-phase contrast images. The IC50 values were determined at the point at which control cells reached ~90% confluence. Relative cell confluence (control is taken as 100%) is plotted against concentration. Dashed lines in FIG. 5B represent the fitting curves used to determine the IC50 values as indicated for MGN and MGN-B. Data shown are the mean±SD.
# as §3, with “MiaPaCa-2 cells were maintained in Dulbecco's Modified Eagle Medium (Thermo Fisher Scientific, Waltham, MA, USA; Cat #11965) and supplemented with 10% fetal bovine serum. All cells were stored in liquid nitrogen and used within 20 passages after thawing.” left out
# [6] = tested on: granulocytic-myeloid-derived suppressor cells (G-MDSCs) and regulatory T cells (Tregs); conditions: cited from earlier work
# [7] = Hydrolysis of pinacolate ester in aqueous phosphate buffer, HPLC; type: physicochemical; conditions: upon dilution in aqueous phosphate buffer
# Experimental: Stock solutions of HNK-B, HNK-B^2, and Mito-HNK-B were prepared in dimethyl sulfoxide at a 10 mM concentration and this solution was added directly to the buffer to obtain the desired concentration. […] Thus, the boronic acid species were tested with the oxidants. When studying HNK-B and Mito-HNK-B oxidations by HOCl, stock solutions (10 mM) in MeCN were added to the phosphate buffer (100 mM, pH 7.4) to obtain a final concentration of the probe of 500 μM. Dimethyl sulfoxide solvent was avoided due to known rapid quenching of HOCl by dimethyl sulfoxide.
# [8] = Oxidation of boronates by H2O2, HPLC; type: physicochemical
# Experimental: (§4) All samples were incubated at room temperature in aqueous solution containing phosphate buffer (0.1 M, pH 7.4) and DTPA (10 μM). Absorption traces recorded using UV absorption detection at 260 nm.
# (§5) High-performance liquid chromatography (HPLC) analysis was performed using an Agilent 1200 apparatus equipped with ultraviolet-visible spectroscopy absorption and a mass spectrometry detector (single quadrupole).
# (§6) In the studies on the reaction profile of ONOO oxidation of Mito-HNK-B and derivatives, 2 μL of sample was injected into the HPLC system equipped with a C18 column (Phenomenex, Kinetex Evo, 100×2.1 mm, 1.7 μm) equilibrated with 5% MeCN containing 0.1% (v/v) formic acid. The compounds were separated by a linear increase in MeCN phase concentration from 5% to 100% over 8 min and until 15 min at 100% MeCN using a flow rate of 0.21 mL/min. The peak areas detected by monitoring the absorption at 260 nm were used for the quantitation.
# (§7) The stock solutions of oxidants (HOCl and H2O2) were prepared freshly before each experiment; their concentrations were determined by spectrophotometry by reacting nitrite with H2O2, using the procedure described previously. […] Immediately prior to each experiment, the concentration of ONOO was determined spectrally at 302 nm (ε=1.7× 103 M^−1 cm^−1) after dilution in 0.1 M sodium hydroxide to ~10 mM concentration. […]
# [9] = Oxidation of boronates by ONOO−, HPLC; type: physicochemical; conditions: in the presence of ONOO−
# Experimental: as §4, §5, §6, §7
# [10] = tested on: kidney; conditions: in vivo; cited from earlier work
# [11] = not told; cited from earlier work
# [12] = tested on: lung tumors; conditions: mice xenografts; cited from earlier work
# [13] = target: T1, NOX2 (Homo sapiens, UniProt P04839); experiment: Oxidant formation from NOX2; conditions: preliminary results
# T1 sequence (P04839 2-570 limits assumed): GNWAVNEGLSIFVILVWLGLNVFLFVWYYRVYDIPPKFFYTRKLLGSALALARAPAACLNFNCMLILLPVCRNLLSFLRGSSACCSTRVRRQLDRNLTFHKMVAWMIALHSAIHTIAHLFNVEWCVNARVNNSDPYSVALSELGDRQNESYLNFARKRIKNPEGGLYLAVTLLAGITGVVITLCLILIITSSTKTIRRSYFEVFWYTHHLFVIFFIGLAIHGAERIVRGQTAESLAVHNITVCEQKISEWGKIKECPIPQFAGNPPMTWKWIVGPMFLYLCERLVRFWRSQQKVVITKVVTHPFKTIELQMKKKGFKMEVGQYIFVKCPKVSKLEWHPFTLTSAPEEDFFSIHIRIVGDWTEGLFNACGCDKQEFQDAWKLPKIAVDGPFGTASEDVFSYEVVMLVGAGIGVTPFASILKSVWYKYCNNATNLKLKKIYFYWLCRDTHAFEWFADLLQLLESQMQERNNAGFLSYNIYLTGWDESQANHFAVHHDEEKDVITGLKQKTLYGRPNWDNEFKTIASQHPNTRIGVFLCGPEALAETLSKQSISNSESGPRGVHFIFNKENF
compound,measurement,setting,value
"NC(=O)c1c(COC(=O)c2ccccc2O)no[n+]1[O-] [AT38, 3-(aminocarbonyl) furoxan-4-yl) methyl salicylate]",chemokine nitration,[1],mitigated chemokine nitration
same,expression of arginase-1 and NOS-2 (or iNOS) in myeloid cells in the TME,[1],inhibited the expression
"C=CCc1ccc(O)c(-c2ccc(O)c(CC=C)c2)c1 [HNK, honokiol]","antiproliferative effect, boronate versus non-boronated analog",[2],nearly the same
same,"antiproliferative effect, boronate versus non-boronated analog",[3],nearly the same
same,"antiproliferative effect, boronate versus non-boronated analog",[4],nearly the same
"C=CCc1ccc(O)c(-c2cc(CC=C)ccc2O)c1 [MGN, magnolol]",effect on proliferation,[5],decreasing the proliferation
"C=CCc1ccc(O)c(-c2cc(CC=C)ccc2OCc2ccc(B3OC(C)(C)C(C)(C)O3)cc2)c1 [MGN-B, Magnolol boronate]","antiproliferative effect, boronate versus non-boronated analog",[2],increased the potency
same,effect on proliferation,[5],decreasing the proliferation
"O=C1C(OCCCCCCCCCC[P+](c2ccccc2)(c2ccccc2)c2ccccc2)=C(C2CCC(c3ccc(Cl)cc3)CC2)C(=O)c2ccccc21 (stereo not drawn) [Mito-ATO, Mitochondria-targeted atovaquone]",G-MDSCs and Tregs in the TME,[6]; flow cytometry analysis,significant decreases
same,T cell immune responses locally and in distant tumor sites,"[6]; intratumoral injection into primary tumors, spontaneous tumor model",triggered potent T cell immune responses
Mitochondria-targeted honokiol boronate [Mito-HNK-B],hydrolysis of pinacolate ester to the corresponding boronic acid,[7],fast hydrolysis
same,"antiproliferative effect, boronate versus non-boronated analog",[2],slightly more potent; also recorded: nearly the same
same,conversion of boronate to parent polyphenol,[8]; at higher concentrations of H2O2,increased
same,conversion of boronate to parent polyphenol (HNK or Mito-HNK),"[8]; in the presence of H2O2 (500 μM), boronate 500 μM, phosphate buffer 0.1 M pH 7.4, room temperature",37%
same,oxidation to HNK / Mito-HNK,[9],rapidly oxidized
same,"antiproliferative effect, boronate versus non-boronated analog",[3],nearly the same
same,"antiproliferative effect, boronate versus non-boronated analog",[4],nearly the same
Mitochondria-targeted magnolol boronate [Mito-MGN-B],antiproliferative potency of TPP+ conjugate compared with parent compounds MGN/MGN-B,[2],increased their antiproliferative potencies
same,"antiproliferative effect, boronate versus non-boronated analog",[2],slightly more potent
mitochondria-targeted carboxy-proxyl [Mito-CP],cisplatin-induced renal toxicity,[10],inhibited cisplatin-induced renal toxicity
mitochondria-targeted honokiol [Mito-HNK],blood-brain-barrier permeability,[11],showed blood-brain-barrier permeability
same,"antiproliferative effect, boronate versus non-boronated analog",[2],nearly the same
same,metastasis of lung tumors to the brain,[12],inhibited metastasis
same,oxidant formation from NOX2,[13],inhibits oxidant formation
same,"antiproliferative effect, boronate versus non-boronated analog",[3],nearly the same
same,"antiproliferative effect, boronate versus non-boronated analog",[4],nearly the same
mitochondria-targeted magnolol [Mito-MGN],antiproliferative potency of TPP+ conjugate compared with parent compounds MGN/MGN-B,[2],increased their antiproliferative potencies
